Source: US20050222423A1, “Carboxylic acid derivative” (TAISHO PHAR[…]., LTD., priority 2001, published 2005)
In brackets after ≈: the same amount, converted by molar mass.

Assays:
Flt-1 = target: T1, Flt-1 (Homo sapiens, UniProt P17948); test: VEGF Receptor-Binding Test ([125I]-VEGF binding to NIH3T3 cells in which Flt-1 was forced to be expressed); conditions: test compound concentration 1 μg/ml; [125I]-VEGF 25 pM; 90 minutes at 4° C.
T1 construct: expressed in transfected cells; host or cells: NIH3T3 cells (G418-selected)
T1 sequence (P17948 27-1338): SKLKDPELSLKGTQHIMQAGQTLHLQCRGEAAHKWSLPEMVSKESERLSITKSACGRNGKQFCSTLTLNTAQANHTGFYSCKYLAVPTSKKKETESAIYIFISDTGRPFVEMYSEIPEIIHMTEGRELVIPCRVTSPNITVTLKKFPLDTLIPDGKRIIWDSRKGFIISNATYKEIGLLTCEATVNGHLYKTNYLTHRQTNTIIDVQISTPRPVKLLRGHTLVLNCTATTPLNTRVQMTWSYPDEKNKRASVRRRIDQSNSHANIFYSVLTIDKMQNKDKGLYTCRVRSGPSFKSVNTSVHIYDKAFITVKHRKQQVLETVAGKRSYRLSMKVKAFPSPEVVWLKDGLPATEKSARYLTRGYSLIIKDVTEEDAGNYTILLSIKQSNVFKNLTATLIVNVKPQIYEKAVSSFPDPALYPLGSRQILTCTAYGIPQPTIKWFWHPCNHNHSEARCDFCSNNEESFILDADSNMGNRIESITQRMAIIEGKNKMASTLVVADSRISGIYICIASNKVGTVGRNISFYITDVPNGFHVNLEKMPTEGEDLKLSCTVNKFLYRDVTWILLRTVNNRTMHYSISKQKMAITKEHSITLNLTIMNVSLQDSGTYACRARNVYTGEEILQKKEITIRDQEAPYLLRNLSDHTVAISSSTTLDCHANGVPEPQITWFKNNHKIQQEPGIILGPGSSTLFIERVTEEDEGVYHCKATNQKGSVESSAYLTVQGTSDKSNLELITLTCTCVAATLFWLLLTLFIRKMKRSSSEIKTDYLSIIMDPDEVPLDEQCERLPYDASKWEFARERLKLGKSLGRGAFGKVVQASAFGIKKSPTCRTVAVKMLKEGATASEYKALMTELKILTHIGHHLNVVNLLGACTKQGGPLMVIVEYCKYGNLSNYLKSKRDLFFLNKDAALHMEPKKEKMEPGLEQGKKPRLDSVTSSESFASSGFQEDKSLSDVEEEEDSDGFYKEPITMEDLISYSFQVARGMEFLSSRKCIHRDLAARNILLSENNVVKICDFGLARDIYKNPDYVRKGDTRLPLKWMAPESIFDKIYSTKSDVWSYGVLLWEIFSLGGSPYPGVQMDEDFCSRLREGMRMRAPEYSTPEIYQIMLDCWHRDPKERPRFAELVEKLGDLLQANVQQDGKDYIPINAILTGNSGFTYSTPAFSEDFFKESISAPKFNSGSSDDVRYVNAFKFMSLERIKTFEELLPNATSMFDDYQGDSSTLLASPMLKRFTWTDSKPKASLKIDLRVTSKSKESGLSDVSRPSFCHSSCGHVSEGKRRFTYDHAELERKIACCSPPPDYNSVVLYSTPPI
Description: According to the method described in a document (Cell Growth & Differentiation, vol. 7, pp. 213-221, 1996), the following tests were carried out.
NIH3T3 cells, in which Flt-1 was forced to be expressed, were seeded on a 24-well collagen-coated plate (7×10^4 cells/well), and were cultured in Dulbecco's modified Eagle's medium (DMEM) containing 10% bovine serum and 200 μg/ml of Geneticin G418 for 24 hours at 37° C. under an atmosphere of 5% carbon dioxide gas. The cells were preincubated in Buffer A [containing 10 mM HEPES (N-2-hydroxyethylpiperazine-N′-2-ethanesulfonic acid) and 0.1% BSA (bovine serum albumin) in DMEM] for 30 minutes at 4° C. Subsequently, the medium was replaced with Buffer B (containing 10 mM HEPES and 0.5% BSA in DMEM). […] The radioactivity of the lysed cells in each well was measured by means of a gamma counter, and a total binding quantity of [^125I]-VEGF was calculated. Non-specific binding quantity of [^125I]-VEGF was measured by competition assay in the presence of 10 nM non-labeled VEGF. The specific binding quantity of [^125I]-VEGF was calculated from the difference between the total binding quantity of [^125I]-VEGF and non-specific binding quantity of ^125I]-VEGF. The binding inhibition index of the test compounds was calculated by the following equation.

[1] = pH 6.9; phosphate buffer 20 mM; 25° C.
Description: 1 mg of a test compound was weighed out in a threaded test tube, 1 ml of a phosphate buffer (pH: 6.8; 20 mM; ion intensity=0.15) was added thereto and, after shaking for 2 hours at room temperature under light-shielded condition, was incubated for 22 hours at 25° C. A supernatant obtained by centrifuging the test tube for 10 minutes at 3000 rpm at 25° C. was further centrifuged for 10 minutes at 11000 rpm at 25° C. The thus-obtained supernatant was diluted with a water/acetonitrile (1:1) mixture with a dilution ratio of 2 times to 21 times to prepare a sample solution (A). Also, 0.5 mg of the test compound was dissolved in 5 ml of acetonitrile, and diluted two times with acetonitrile to prepare a standard solution (B). 10 μl of the sample solution (A) and 10 μl of the standard solution (B) were subjected to measurement according to HPLC method to determine a peak area of the test compound in each of the solutions. The solubility (mg/ml) of the test compound was calculated according to the following equation using the measured values.
Column temperature: 40° C.

Which “Inhibition Index” value (Flt-1) does the source give for `CCCCCCCCCCCCCCCCCCOc1ccc(CCC(=O)Nc2ccc(Oc3ccc(C(=O)O)cc3)c(C(=O)O)c2)cc1` [a, 5-Amino-2-(4-carboxyphenoxy)-N-[3-{4-(1-octadecyloxy)-phenyl}propionyl]benzoic acid] here?
The value was 65%.

And the Solubility [1]?
Its Solubility is 0.029 µg/mL (≈ 0.043 µM).
